These results are taken from publication PMC6588349 (eLife, 2019).

Entries after “also recorded” stand apart in the source; their conditions may differ. Like-named read-outs stand apart in the source and are kept apart here.

Experiment [1] concerns the target T1, SNAP-mGluR2-TMD (Rattus norvegicus, UniProt P31421).
T1 construct: mGluR2-TMD (rat) starts at Q558; expressed in transfected cells; host or cells: HEK 293T
Description: Single-molecule pulldown (SiMPull) photobleaching step counting, SNAP-mGluR2-TMD. The note with it: 10 µM LY48, 1 µM BINA, 10 µM Ro 64, 1 µM MNI 137. The text has this:
Photobleaching step analysis of individual complexes allows for precise determination of receptor stoichiometry and, unlike FRET or BRET-based methods, this assay is not sensitive to conformation or relative fluorophore orientation. […] However, this work relied on GFP-tagged receptors which leads to a lysate that contains both surface-targeted and intracellular receptors, potentially including immature or partially degraded protein that can confound analysis.
To restrict our analysis to surface-targeted receptors, we expressed N-terminally SNAP-tagged receptor variants and labeled them with membrane-impermeable fluorophores.
To test this, we incubated SNAP-mGluR2-TMD expressing cells and lysates with PAMs or NAMs during the SiMPull experiment.
Briefly, to prevent non-specific sticking of proteins, flow chambers were prepared with mPEG-passivated glass slides and coverslips doped with ~1% biotinylated mPEG, as previously described. Prior to each experiment, chambers were incubated with 0.2 mg/mL NeutrAvidin (ThermoFisher) for 2 min followed by 10 nM of a biotinylated anti-HA antibody (abcam ab26228) for 20–30 min. After each conjugation step, the chambers were washed with T50 buffer (50 mM NaCl, 10 mM Tris, pH 7.5).
After labeling, cells were dissociated from coverslips by incubating with Ca^2+-free PBS for 20 min followed by gentle pipetting. […] Following 1 hr of lysis at 4°C, cells were centrifuged at 16,000 g for 20 min before the supernatant was collected and maintained on ice. The cell lysate was diluted in a 0.1% detergent dilution buffer to obtain sparse immobilization of labeled protein on the passivated slide. After obtaining an optimal density of immobilized protein, the flow chamber was washed with dilution buffer to remove unbound protein. For SiMPull experiments with PAMs and NAMs, drugs were added to cells during the dissociation step (after dye labeling), and maintained throughout the cell lysis and entire experiment.
Single molecules were imaged with a 100x objective on an inverted microscope (Olympus IX73) in total internal reflection fluorescence (TIRF) mode. Images were taken with an scMOS camera (Hamamatsu ORCA-Flash4v3.0) at 20 Hz with 50 ms exposures. […] Multiple independent experiments were performed for each condition. […] A SNAP-tag labeling efficiency of ~80% was used to calculate the proportion of dimers and monomers. Occasional co-localization of two proteins within a diffraction limited spot along with antibody and NeutrAvidin bivalency both make a small contribution to >1 step photobleaching, leading to a background % two-step bleaching level of ~5–10%. All data were produced from at least two separate transfections/protein preparations for each condition.

Experiment [2] addresses T1, SNAP-mGluR2-TMD. In words: Inter-TMD FRET assay in living HEK 293T cells. The experiment is classed as cell-based. The note with it: for EC50: normalized to saturating LY48; for inter-TMD FRET response to drug alone: drug applied alone, XA up to 50 µM. The text has this:
We therefore sought to develop a FRET sensor that reports on activation-associated motions driven by allosteric drugs and hypothesized that an N-terminal fluorophore on the isolated TMD should report on any inter-TMD rearrangement while allowing the receptor to maintain G-protein coupling (Figure 3A). […] To test if LBD-independent inter-TMD rearrangement is a feature of other mGluRs, we asked if donor and acceptor conjugation to SNAP-mGluR5-TMD would allow for the detection a FRET response to a PAM.
Cells were cultured in DMEM with 5% FBS on poly-L-lysine-coated glass coverslips. DNA plasmids were transfected into cells using Lipofectamine 3000 (Thermo Fisher). […] For single-molecule pulldown (SiMPull) experiments, cells were transfected with 0.7 μg DNA of HA and SNAP-tagged receptor constructs, unless otherwise noted. For FRET experiments, cells were transfected with either SNAP-tagged constructs at 0.5–0.7 μg of DNA/well or SNAP and CLIP-tagged constructs at a ratio of 1:2 with 0.3 μg of SNAP DNA/well.
(§1) Fluorophores were diluted in EX solution, which was also used to wash coverslips following labeling and prior to mounting on the microscope. After labeling, cells were mounted on an inverted microscope (Olympus IX73) and imaged with a 60x objective. […] Clusters of cells were analyzed together using ImageJ and FRET was calculated as FRET=(IAcceptor)/(IDonor +IAcceptor) where I is fluorescence intensity. No corrections were made for bleed-through between channels or the contribution of donor-donor or acceptor-acceptor dimers as analysis was limited to relative FRET changes between drug treatments rather than absolute FRET values. […] FRET changes calculated for dose–response curves were normalized to the response to saturating […] applied within the same recording and dose–response curves were obtained from multiple cell clusters and averaged from at least three separate experiments. Dose–response curves were fit using Prism (Graphpad). All drugs were purchased from Tocris, prepared in EX solution, and delivered with a gravity-driven perfusion system. For kinetics measurements a pressurized perfusion system (Automate Scientific) was used to produce a flow rate of 0.5 mL/s. Kinetic analysis was performed in Microsoft Excel. The time between 10% and 90% FRET increase or decrease was determined manually. For photo-bleaching/donor-recovery experiments, images were taken in donor and acceptor channels at baseline and again followed by a 1 min exposure to 640 nm laser illumination at maximum intensity. All experiments were performed at room temperature. All data were produced from at least two separate transfections for each condition.

Experiment [3] deals with T2, SNAP-mGluR2 (full-length) (Rattus norvegicus, UniProt P31421).
T2 construct: HEK 293T cells expressing full-length mGluR2; expressed in transfected cells; host or cells: HEK 293T
In words: Inter-LBD FRET assay with full-length SNAP-mGluR2. It is filed as cell-based. The note with it: saturating concentrations; for direct effect on inter-LBD FRET (no orthosteric agonist for modulators): drug applied alone; for effect on inter-LBD FRET response to DCG-IV: agonist DCG-IV.
Source text: We next sought to further probe the variation in PAM-induced inter-TMD FRET changes. […] We used an inter-LBD FRET assay to assess the relative strength of allosteric modulation by different mGluR2 PAMs. Agonists induce a decrease in FRET between fluorophore-conjugated N-terminal SNAP- and CLIP-tags (Figure 4E). […] We tested this effect for all PAMs by applying a saturating concentration of DCG-IV followed by co-application of a saturating concentration of each PAM, which produced further FRET decreases (Figure 4F,G).
as §1

Setting [4] is: SNAP-mGluR2-TMD labeled with donor and acceptor, mean ± s.e.m., read-out: inter-TMD FRET increase EC50.

T2 sequence (P31421 19-872): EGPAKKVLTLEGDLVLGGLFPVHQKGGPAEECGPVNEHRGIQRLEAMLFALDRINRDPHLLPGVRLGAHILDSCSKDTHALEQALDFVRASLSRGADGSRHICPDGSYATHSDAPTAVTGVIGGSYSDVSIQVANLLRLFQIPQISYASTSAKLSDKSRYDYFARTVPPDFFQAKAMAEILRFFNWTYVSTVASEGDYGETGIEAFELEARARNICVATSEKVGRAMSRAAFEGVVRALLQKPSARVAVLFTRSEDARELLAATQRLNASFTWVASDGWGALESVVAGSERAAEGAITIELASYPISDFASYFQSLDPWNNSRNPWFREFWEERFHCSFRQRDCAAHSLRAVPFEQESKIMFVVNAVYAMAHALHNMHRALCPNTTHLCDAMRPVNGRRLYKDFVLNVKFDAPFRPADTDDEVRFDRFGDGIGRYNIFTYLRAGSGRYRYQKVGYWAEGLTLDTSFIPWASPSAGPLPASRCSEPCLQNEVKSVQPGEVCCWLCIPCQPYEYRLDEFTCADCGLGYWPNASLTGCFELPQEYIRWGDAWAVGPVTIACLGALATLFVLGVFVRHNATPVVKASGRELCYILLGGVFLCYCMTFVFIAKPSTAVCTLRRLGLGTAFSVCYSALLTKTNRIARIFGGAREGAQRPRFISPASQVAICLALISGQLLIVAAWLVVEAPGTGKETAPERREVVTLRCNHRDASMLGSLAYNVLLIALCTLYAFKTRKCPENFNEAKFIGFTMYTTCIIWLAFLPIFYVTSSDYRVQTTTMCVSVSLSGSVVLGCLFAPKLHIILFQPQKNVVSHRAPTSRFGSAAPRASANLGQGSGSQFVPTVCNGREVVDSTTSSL
T1 sequence (P31421 558-872 limits assumed): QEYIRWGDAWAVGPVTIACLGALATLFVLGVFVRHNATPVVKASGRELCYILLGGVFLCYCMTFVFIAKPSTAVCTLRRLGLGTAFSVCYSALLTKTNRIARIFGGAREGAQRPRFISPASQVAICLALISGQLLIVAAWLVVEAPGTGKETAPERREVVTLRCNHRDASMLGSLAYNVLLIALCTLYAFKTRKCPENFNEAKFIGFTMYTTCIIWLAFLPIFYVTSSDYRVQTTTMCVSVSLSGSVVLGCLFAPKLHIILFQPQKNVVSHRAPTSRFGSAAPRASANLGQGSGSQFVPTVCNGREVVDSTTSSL

For the molecule `COc1ccccc1Oc1ccc(N(Cc2cccnc2)S(=O)(=O)CC(F)(F)F)cc1` [LY48], on SNAP-mGluR2-TMD [1], the “higher order complexes with >3 bleaching steps in presence of drug” value (“higher order complexes” for short) is under 10% and the “two-step photobleaching events of SNAP-mGluR2-TMD in presence of drug” value (shortened to “two-step photobleaching events”) was 40–45%. In addition, the EC50 on SNAP-mGluR2-TMD [2] (SNAP- and CLIP-mGluR2-TMD co-expressed, read-out: inter-TMD FRET increase EC50, co-expression of SNAP- and CLIP-mGluR2-TMD) was determined as 900 ± 100 nM. At SNAP-mGluR2-TMD [2] (setting [4]), the EC50 amounted to 1200 ± 100 nM. Besides, the EC50 at SNAP-mGluR2-TMD [2] (co-expression of dominant negative Gα protein, read-out: inter-TMD FRET increase EC50 with dominant negative G protein) worked out at 600 ± 40 nM. Also, the “inter-TMD FRET response to drug alone” value at SNAP-mGluR2-TMD [2] was “readily detectable FRET increase”. At SNAP-mGluR2-TMD [2] (saturating concentrations), the “inter-TMD FRET response onset” value lay in the range of 10 to 40 s and the “inter-TMD FRET response reversal” value is under 2 min. In addition, in experiment [3], the “direct effect on inter-LBD FRET (no orthosteric agonist for modulators)” value is “no effect on FRET level; also recorded: unable to directly induce LBD closure”.
Take `N#Cc1cc(C2=Nc3ccc(Br)cc3NC(=O)C2)ccn1` [MNI 137]: at SNAP-mGluR2-TMD [1], the “higher order complexes” value is on record as under 10% and the “two-step photobleaching events” value is reported as 40–45%. The “effect on LY48-induced inter-TMD FRET response” value at SNAP-mGluR2-TMD [2] (NAM versus LY48) was “blocked”. Moreover, the “effect on BINA-induced inter-TMD FRET increase” value at SNAP-mGluR2-TMD [2] (applied after BINA) is given as “reversed the BINA-induced FRET increase back to baseline”. Also, the “effect on Ro 64-induced inter-TMD FRET increase” value at SNAP-mGluR2-TMD [2] (applied after Ro 64) is recorded as “partially reverse”. Moreover, at SNAP-mGluR2-TMD [2], the “inter-TMD FRET response to drug alone” value is reported as “minimal FRET changes”. Moreover, in experiment [3], the “direct effect on inter-LBD FRET (no orthosteric agonist for modulators)” value was “did not alter the basal inter-LBD FRET” and the “effect on inter-LBD FRET response to DCG-IV” value was “partial antagonism”.
Take `Clc1cccc(Cl)c1/C(=C/n1cncn1)OC1CCCCCC1` [Ro 64]: on SNAP-mGluR2-TMD [1], the “higher order complexes” value was under 10% and the “two-step photobleaching events” value is 40–45%. Besides, at SNAP-mGluR2-TMD [2], the “inter-TMD FRET OFF kinetics” value is listed as “very slow OFF kinetics” and the “inter-TMD FRET response to drug alone” value was “robust, dose-dependent inter-TMD FRET increases”. For the same molecule, the concentration for a half-maximal effect (EC50) on SNAP-mGluR2-TMD [2] (setting [4]) turned out to be 2100 ± 200 nM. In experiment [3], the “direct effect on inter-LBD FRET (no orthosteric agonist for modulators)” value was “did not alter the basal inter-LBD FRET” and the “effect on inter-LBD FRET response to DCG-IV” value is given as “partial antagonism”.

In general, EC50 refers to the concentration that produces a half-maximal response.
